In publication PMC7999182, “Interaction of Remdesivir with Clinically Relevant Hepatic Drug Uptake Transporters” (Pharmaceutics, 2021):

Tests used:
OATP1B1 [1] = tested on: OATP1B1; parameters: method as in earlier work; settings: prototypic substrate not stated; cited from earlier work
OATP1B1 [2] = biological target: T1, OATP1B1 (Homo sapiens, UniProt Q9Y6L6); assay: Inhibition of OATP1B1-mediated BSP uptake; type: cell-based
T1 construct: expressed in transfected cells
T1 sequence (Q9Y6L6 1-691): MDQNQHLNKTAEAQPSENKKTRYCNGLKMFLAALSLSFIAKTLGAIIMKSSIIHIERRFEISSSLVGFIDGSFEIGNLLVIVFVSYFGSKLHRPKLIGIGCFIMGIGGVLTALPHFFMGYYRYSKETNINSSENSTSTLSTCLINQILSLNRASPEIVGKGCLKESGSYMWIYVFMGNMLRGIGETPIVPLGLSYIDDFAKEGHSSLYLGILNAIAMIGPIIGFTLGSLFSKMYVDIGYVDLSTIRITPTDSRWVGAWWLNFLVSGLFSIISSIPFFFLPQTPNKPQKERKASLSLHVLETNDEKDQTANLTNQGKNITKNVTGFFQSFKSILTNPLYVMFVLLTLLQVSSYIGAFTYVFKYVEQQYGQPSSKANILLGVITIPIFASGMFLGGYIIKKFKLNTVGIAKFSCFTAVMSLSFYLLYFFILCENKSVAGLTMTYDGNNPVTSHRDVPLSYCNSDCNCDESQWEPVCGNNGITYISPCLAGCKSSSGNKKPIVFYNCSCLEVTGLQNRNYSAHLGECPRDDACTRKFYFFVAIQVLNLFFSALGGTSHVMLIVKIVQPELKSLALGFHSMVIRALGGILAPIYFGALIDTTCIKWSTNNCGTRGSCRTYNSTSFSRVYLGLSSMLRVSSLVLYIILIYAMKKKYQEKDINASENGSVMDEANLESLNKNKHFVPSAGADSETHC
Description: (§1) Generation, cultivation and characterization of human embryonic kidney (HEK) cells stably expressing OATP1B1 refseq (=OATP1B1*1a), OATP1B1*1b, OATP1B1*5 and OATP1B1*15 [18], OATP1B3 [19], OATP2B1 [13] and OCT1 [20] have been described previously. OATP1B1 cells were cultivated in minimal essential medium (Life Technologies, Paisley, UK) and OATP1B3, OATP2B1 and OCT1 cells were cultivated in Dulbecco’s modified Eagle medium (Sigma, Darmstadt, Germany). Cultivation media were supplemented with 10% fetal calf serum, 100 U/mL penicillin and 100 µg/mL streptomycin. Cells were grown at 37 °C and 5% CO2. Functionality of the cells was confirmed by measuring uptake of prototypic substrates (see Section 2.3 and supplementary material).
(§2) Prototypic substrate uptake was performed as described previously. For this, uptake solutions contained the respective substrate with tracer amounts of radiolabeled substrate. In case of inhibition studies, uptake solutions additionally contained different concentrations of remdesivir. […] Cells were then lysed with 0.2% sodium dodecyl sulfate and intracellular radioactivity was measured by liquid scintillation counting (Tricarb2800, PerkinElmer Life Sciences GmbH, Rodgau, Germany or Hidex 300SL TDCR liquid scintillation counter, Turku, Finland). […]

OATP1B3 [3] = tested on: OATP1B3; parameters: method as in earlier work; settings: prototypic substrate not stated; cited from earlier work
OCT1 = biological target: T2, OCT1 (Homo sapiens, UniProt O15245); assay: Inhibition of OCT1-mediated metformin uptake; type: cell-based
T2 construct: expressed in transfected cells
T2 sequence (O15245 1-554): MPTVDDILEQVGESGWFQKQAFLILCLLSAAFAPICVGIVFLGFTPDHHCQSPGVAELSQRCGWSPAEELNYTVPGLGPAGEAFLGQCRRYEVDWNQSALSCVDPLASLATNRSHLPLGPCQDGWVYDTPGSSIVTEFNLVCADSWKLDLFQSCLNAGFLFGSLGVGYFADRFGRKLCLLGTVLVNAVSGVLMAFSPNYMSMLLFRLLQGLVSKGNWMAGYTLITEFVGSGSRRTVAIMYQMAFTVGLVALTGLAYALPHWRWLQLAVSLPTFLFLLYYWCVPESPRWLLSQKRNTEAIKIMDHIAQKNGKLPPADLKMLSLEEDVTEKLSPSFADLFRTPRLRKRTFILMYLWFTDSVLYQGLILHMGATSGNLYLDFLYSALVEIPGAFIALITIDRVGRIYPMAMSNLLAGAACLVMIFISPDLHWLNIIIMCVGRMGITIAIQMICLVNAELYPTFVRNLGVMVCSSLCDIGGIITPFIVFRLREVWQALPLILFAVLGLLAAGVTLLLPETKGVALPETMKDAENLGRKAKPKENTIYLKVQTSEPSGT
Description: as §1, §2

OATP1B3 [4] = biological target: T3, OATP1B3 (Homo sapiens, UniProt Q9NPD5); assay: Inhibition of OATP1B3-mediated estradiol glucuronide uptake; type: cell-based
T3 construct: expressed in transfected cells
T3 sequence (Q9NPD5 1-702): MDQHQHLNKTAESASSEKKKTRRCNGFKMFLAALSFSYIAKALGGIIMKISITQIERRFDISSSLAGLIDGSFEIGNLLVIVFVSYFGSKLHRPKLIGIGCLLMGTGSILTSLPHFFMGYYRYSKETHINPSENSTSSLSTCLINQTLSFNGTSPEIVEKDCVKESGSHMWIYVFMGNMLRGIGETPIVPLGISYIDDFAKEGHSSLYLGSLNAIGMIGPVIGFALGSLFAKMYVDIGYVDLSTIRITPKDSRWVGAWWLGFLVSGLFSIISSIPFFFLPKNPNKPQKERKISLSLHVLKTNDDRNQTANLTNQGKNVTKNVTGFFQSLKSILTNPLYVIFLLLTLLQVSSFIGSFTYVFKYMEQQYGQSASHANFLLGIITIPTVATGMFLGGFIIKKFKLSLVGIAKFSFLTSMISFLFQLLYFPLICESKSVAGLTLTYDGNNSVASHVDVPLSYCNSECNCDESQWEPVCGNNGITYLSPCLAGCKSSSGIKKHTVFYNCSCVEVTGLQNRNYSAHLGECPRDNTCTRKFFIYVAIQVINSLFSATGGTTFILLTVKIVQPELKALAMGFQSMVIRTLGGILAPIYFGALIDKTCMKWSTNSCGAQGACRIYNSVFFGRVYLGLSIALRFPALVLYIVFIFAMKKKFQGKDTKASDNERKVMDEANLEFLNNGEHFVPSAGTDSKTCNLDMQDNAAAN
Description: as §1, §2

CCC(CC)COC(=O)[C@H](C)N[P@](=O)(OC[C@H]1O[C@@](C#N)(c2ccc3c(N)ncnn23)[C@H](O)[C@@H]1O)Oc1ccccc1 [Remdesivir]
IC50 (OATP1B1 [1]): 2.8 µM | Effect on prototypic substrate uptake (OATP1B1 [2]; 0.05 µM BSP, 10 min uptake, different remdesivir concentrations): significant concentration-dependent inhibitory effect | Transporter inhibition at 10 µM (OATP1B1 [2]; 10 µM remdesivir, BSP as substrate): inhibition | IC50 (OATP1B3 [3]): 2.1 µM | Effect on prototypic substrate uptake (OCT1; 5 µM metformin, 5 min uptake, different remdesivir concentrations): significant concentration-dependent inhibitory effect | Transporter inhibition at 10 µM (OCT1; 10 µM remdesivir, metformin as substrate): inhibition | Effect on prototypic substrate uptake (OATP1B3 [4]; 5 µM estradiol glucuronide, 5 min uptake, different remdesivir concentrations): significant concentration-dependent inhibitory effect | Transporter inhibition at 10 µM (OATP1B3 [4]; 10 µM remdesivir, estradiol glucuronide as substrate): inhibition
